± gives the expanded uncertainty stated by the source.
Assay: excess molar enthalpy (molar enthalpy of mixing); xn = mol fraction of the nth substance listed
Conditions: 473 K, 101.3 kPa, Crystal, Calvet calorimetry

## O=[N+]([O-])[O-].[Tl+] [thallium nitrate] + O=[N+]([O-])[O-].[Cs+]
x2 = 0.25
  excess molar enthalpy: 0.299 ± 0.0621 kcal/mol
x2 = 0.5
  excess molar enthalpy: 0.343 ± 0.0717 kcal/mol
x2 = 0.75
  excess molar enthalpy: 0.248 ± 0.0526 kcal/mol

Source: the NIST ThermoML archive (doi:10.1016/j.jct.2015.08.019)
